Patent US8846627B2, “Method for treatment of malaria” (The Second Military Medical University, priority 2009, dated 2014)

Biological target: T1, Falcipain-2 protease (FP-2) (Plasmodium falciparum, UniProt Q8I6U4)
T1 construct: The falcipain-2 fragment was amplified by the polymerase chain reaction (PCR); His6 (N-terminal MRGS-His6 supplied by the pQE-30 vector; own knowledge of the vector, consistent with the Ni2+-NTA purification) (N); made in house; host or cells: E. coli M15
T1 sequence (Q8I6U4 244-484): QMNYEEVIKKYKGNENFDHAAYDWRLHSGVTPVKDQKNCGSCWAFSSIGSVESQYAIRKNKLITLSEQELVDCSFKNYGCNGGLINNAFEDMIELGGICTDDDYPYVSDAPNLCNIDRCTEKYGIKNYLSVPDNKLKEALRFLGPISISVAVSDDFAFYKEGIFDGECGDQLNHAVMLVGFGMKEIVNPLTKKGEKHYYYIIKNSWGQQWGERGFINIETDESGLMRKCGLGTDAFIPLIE
Experiment: SPR (Biacore 3000) binding assay with immobilised FP-2 protein
Details: SPR screening at 1 μM and 10 μM
Text: The screening and kinetics determination of the falcipain-2 protease and tiliroside binding activity are based on SPR mechanism, which employs Biacore 3000 (Biacore AB, Uppsala, Sweden).
(1) The Construction of Falcipain-2 Plasmid (pQE30-Fal2)
Primers were designed according to the falcipain-2 cDNA sequence, utilizing the following primers, forward 5′[…]3′(SEQ ID NO. 1) and reverse 5′[…]3′ (SEQ ID NO. 2), which including two restriction sites, BamH I and SaI I The falcipain-2 fragment was amplified by the polymerase chain reaction (PCR), and the PCR product was ligated into the pQE-30 expression vector and then further verified by sequencing. This construct was transformed into E. coil M15 (Qiagen).
(2) Expression and Purification of Falcipain-2 Protein
The engineering bacteria were obtained by transforming constructed plasmid pQE30-Fal2 into the E. coli M15 cells. They were culturing in LB medium (10 g/L tryptone, 5 g/L yeast extract, 10 g/L sedium chloride) containing ampicillin […] and kanamtcin […] for overnight. Then, transfer the bacteria into fresh LB medium (1 L) containing ampicillin and kanamycin (according to 1:100) at 37° C., 220 rpm. […] Bound protein was eluted with 8M urea, 20 mM Tris-Cl, 1M imidazole, pH 8.0, and the eluted protein was analyzed by SDS-PAGE. […]

## O=C(/C=C/c1ccc(O)cc1)OC[C@H]1O[C@@H](Oc2c(-c3ccc(O)cc3)oc3cc(O)cc(O)c3c2=O)[C@H](O)[C@@H](O)[C@@H]1O [Tiliroside]
  binding activity with FP-2 protein: obvious binding activity
